Earlier results, collected in publication PMC4163017 (ChemMedChem, 2014).
Where “and” joins values, the source holds several entries; their conditions need not be identical. Equal values may be shown once. Read-outs that look alike come from different tables or passages of the source.

Experiments:
IRES SLIIb RNA = details: read-out: KD (dissociation constant); free peptide GGHYrFK-amide; ref [4]
[1] = tested on: ET (luc-ubi-neo/ET) Huh7 human hepatoma cells; details: 72 h, CytoTox-1, previously reported, ref [4]
[2] = tested on: 5'-fluorescein-labeled IRES SLIIb RNA; details: ref [4]
[3] = tested on: HCV RNA replicon in ET (luc-ubi-neo/ET) Huh7 cells; details: HCV cellular replicon assay; ref [4]
[4] = fixed catalyst concentration with varying [RNA]

Substance: Cu-GGHYrFK-amide [1-Cu]
- Kd (IRES SLIIb RNA): 0.044 ± 0.002 µM
- Cytotoxicity TC50 [1]: greater than 100 µM
- Cytotoxicity TC50 ([1]; listed as [GGHYrFK-amide]-Cu^2+, 1-Cu): > 100 µM
- Km [2, 4]: 0.85 ± 0.09 µM
- kcat [2, 4]: 0.00883 s⁻¹ and 0.00883 ± 0.00033 s⁻¹
- kcat/KM [2, 4]: 10300 M⁻¹ s⁻¹
- Turnover Number [2]: 32
- activity in combination with recombinant interferon alpha-2b [3]: additive to slightly synergic activity

Substance: GGHYrFK-amide
- Kd (IRES SLIIb RNA): 0.044 µM
